Measured values taken from patent US12522595B2, “Bicyclic ether O-glycoprotein-2-acetamido-2-deoxy-3-D-glucopyranosidase inhibitors” (BIOGEN MA INC., priority 2019, dated 2026).

Molecular target: T1, Recombinant full length human OGA enzyme (Homo sapiens, UniProt O60502)
T1 construct: Recombinant full length human OGA enzyme was purchased from Origene; purchased Origene
T1 sequence (O60502 1-916): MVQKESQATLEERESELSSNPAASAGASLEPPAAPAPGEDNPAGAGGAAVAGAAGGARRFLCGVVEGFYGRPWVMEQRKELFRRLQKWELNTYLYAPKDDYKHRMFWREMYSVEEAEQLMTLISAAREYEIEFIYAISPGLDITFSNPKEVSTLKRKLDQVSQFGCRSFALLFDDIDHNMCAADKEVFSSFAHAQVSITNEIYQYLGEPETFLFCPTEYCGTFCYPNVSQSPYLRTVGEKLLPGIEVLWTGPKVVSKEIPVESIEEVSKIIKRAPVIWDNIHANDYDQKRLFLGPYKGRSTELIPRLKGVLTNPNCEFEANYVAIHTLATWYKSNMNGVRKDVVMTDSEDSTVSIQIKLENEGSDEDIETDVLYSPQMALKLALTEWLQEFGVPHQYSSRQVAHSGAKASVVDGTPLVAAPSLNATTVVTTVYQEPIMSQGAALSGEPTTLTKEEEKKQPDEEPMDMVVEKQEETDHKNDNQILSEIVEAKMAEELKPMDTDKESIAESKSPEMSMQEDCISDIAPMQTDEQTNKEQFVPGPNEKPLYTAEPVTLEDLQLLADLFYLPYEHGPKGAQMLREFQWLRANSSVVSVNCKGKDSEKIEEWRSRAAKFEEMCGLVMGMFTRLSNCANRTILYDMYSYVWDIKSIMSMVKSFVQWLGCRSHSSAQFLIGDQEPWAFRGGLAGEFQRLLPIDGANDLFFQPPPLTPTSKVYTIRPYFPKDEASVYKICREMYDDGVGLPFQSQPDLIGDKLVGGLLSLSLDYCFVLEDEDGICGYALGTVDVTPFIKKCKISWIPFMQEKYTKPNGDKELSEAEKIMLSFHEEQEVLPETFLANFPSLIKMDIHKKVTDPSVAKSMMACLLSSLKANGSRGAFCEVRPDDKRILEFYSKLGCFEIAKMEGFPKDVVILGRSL
Test: OGA enzyme inhibition biochemical assay
Details: 1 nM OGA, 100 μM 4-MUGlcNAc (Km), pH 6.4, 90 minutes at room temperature, 10-point dose-response from 20 μM
Method in brief: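 1 nM OGA with 100 μM 4-MUGlcNAc (Km) in McIlvaine buffer pH 6.4, 0.01% BSA, 90 min at room temperature; quenched with 3M glycine pH 10, fluorescence Ex 355/Em 460 nm. 10-point, 4-fold dilutions from 20 μM; 4-parameter variable-slope fit.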

IC50 [nM] | SMILES
< 1 | CC(=O)Nc1nc(F)c(CN2C[C@H](Oc3cn4cccnc4n3)C[C@@H]2C)s1 [Example 92, N-(4-fluoro-5-(((2S,4R)-4-(imidazo[1,2-a]pyrimidin-2-yloxy)-2-methylpyrrolidin-1-yl)methyl)thiazol-2-yl)acetamide]
< 1 | CC(=O)Nc1nc(F)c(CN2C[C@H](Oc3ccc4ccnn4c3)C[C@@H]2C)s1 [Example 54, N-(4-fluoro-5-(((2S,4R)-2-methyl-4-(pyrazolo[1,5-a]pyridin-6-yloxy)pyrrolidin-1-yl)methyl)thiazol-2-yl)acetamide]
2.4 | CC(=O)Nc1ncc(CN2C[C@H](Oc3ccnc4ccc(C)cc34)C[C@@H]2C)s1 [Example 23, N-(5-(((2S,4R)-2-methyl-4-((6-methylquinolin-4-yl)oxy)pyrrolidin-1-yl)methyl)thiazol-2-yl)acetamide]
< 1 | CC(=O)Nc1nc(F)c(CN2C[C@H](Oc3ccc4cccnc4n3)C[C@@H]2C)s1 [Example 82, N-(5-(((2S,4R)-4-((1,8-naphthyridin-2-yl)oxy)-2-methylpyrrolidin-1-yl)methyl)-4-fluorothiazol-2-yl)acetamide]
< 1 | CC(=O)Nc1ncc(CN2C[C@H](Oc3ccnc4nn(C)cc34)C[C@@H]2C)s1 [Example 85, N-(5-(((2S,4R)-2-methyl-4-((2-methyl-2H-pyrazolo[3,4-b]pyridin-4-yl)oxy)pyrrolidin-1-yl)methyl)thiazol-2-yl)acetamide]
< 1 | CC(=O)Nc1nc(F)c(CN2C[C@H](Oc3nccc4ncccc34)C[C@@H]2C)s1 [Example 114, N-(5-(((2S,4R)-4-((1,6-naphthyridin-5-yl)oxy)-2-methylpyrrolidin-1-yl)methyl)-4-fluorothiazol-2-yl)acetamide]
< 1 | CC(=O)Nc1nc(F)c(CN2C[C@H](Oc3ccc4nn(C)cc4c3)C[C@@H]2C)s1 [Example 50, N-(4-fluoro-5-(((2S,4R)-2-methyl-4-((2-methyl-2H-indazol-5-yl)oxy)pyrrolidin-1-yl)methyl)thiazol-2-yl)acetamide]
< 1 | CC(=O)Nc1nc(F)c(CN2C[C@H](Oc3ccnc4cc(F)cnc34)C[C@@H]2C)s1 [Example 129, N-(4-fluoro-5-(((2S,4R)-4-((7-fluoro-1,5-naphthyridin-4-yl)oxy)-2-methylpyrrolidin-1-yl)methyl)thiazol-2-yl)acetamide]
< 1 | CC(=O)Nc1ncc(CN2C[C@H](Oc3ccn4nccc4c3)C[C@@H]2C)s1 [Example 59, N-(5-(((2S,4R)-2-methyl-4-(pyrazolo[1,5-a]pyridin-5-yloxy)pyrrolidin-1-yl)methyl)thiazol-2-yl)acetamide]
< 1 | CC(=O)Nc1nc(F)c(CN2C[C@H](Oc3ccnc4cnn(C)c34)C[C@@H]2C)s1 [Example 135, N-(4-fluoro-5-(((2S,4R)-2-methyl-4-((1-methyl-1H-pyrazolo[4,3-b]pyridin-7-yl)oxy)pyrrolidin-1-yl)methyl)thiazol-2-yl)acetamide]
2.4 | CC(=O)Nc1ncc(CN2C[C@H](Oc3cccc4cnn(C)c34)C[C@@H]2C)s1 [Example 160, N-(5-(((2S,4R)-2-methyl-4-((1-methyl-1H-indazol-7-yl)oxy)pyrrolidin-1-yl)methyl)thiazol-2-yl)acetamide]
9.7 | CC(=O)Nc1ncc(CN2C[C@H](Oc3cc4ccccc4nc3C#N)C[C@@H]2C)s1 [Example 31, N-(5-(((2S,4R)-4-((2-cyanoquinolin-3-yl)oxy)-2-methylpyrrolidin-1-yl)methyl)thiazol-2-yl)acetamide]
< 1 | CC(=O)Nc1ncc(CN2C[C@H](Oc3cc4cnn(C)c4cn3)C[C@@H]2C)s1 [Example 88, N-(5-(((2S,4R)-2-methyl-4-((1-methyl-1H-pyrazolo[3,4-c]pyridin-5-yl)oxy)pyrrolidin-1-yl)methyl)thiazol-2-yl)acetamide]
< 1 | CC(=O)Nc1nc(F)c(CN2C[C@H](Oc3ccn4cnnc4c3)C[C@@H]2C)s1 [Example 146, N-(5-(((2S,4R)-4-([1,2,4]triazolo[4,3-a]pyridin-7-yloxy)-2-methylpyrrolidin-1-yl)methyl)-4-fluorothiazol-2-yl)acetamide]
